# Data published in patent publication US9260439B2, “Dihydropyrrolopyrimidine derivatives” (PFIZER INC., priority 2014, dated 2016).
# pKi: −log10 of the molar value. Where a name gives a salt, the structure may show the parent alone.
# Molecular target: truncated PI3Kα (p110α/iSH2 p85α) (Homo sapiens (Human), UniProt P42336)
# Assay: PI3KA_Act fluorescence polarization kinase assay (Ki)
# Format: biochemical
# Conditions: 1 mM ATP
# Method in brief: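 Ki values result from fitting fluorescence polarization signals to the Morrison equation for tight-binding competitive inhibitors. The detector was GST-Grp1 PH domain with TAMRA-PIP3, read after a 30 min room-temperature reaction of 0.5 nM truncated PI3Kα and 30 μM PIP2 at pH 7.4 in HEPES/NaCl/MgCl2/DTT/CHAPS buffer. Compounds were tested as 12-point 3-fold dilutions from 3 μM.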
# Chain of truncated PI3Kα (p110α/iSH2 p85α) (P42336 whole entry, the tested form may be a part): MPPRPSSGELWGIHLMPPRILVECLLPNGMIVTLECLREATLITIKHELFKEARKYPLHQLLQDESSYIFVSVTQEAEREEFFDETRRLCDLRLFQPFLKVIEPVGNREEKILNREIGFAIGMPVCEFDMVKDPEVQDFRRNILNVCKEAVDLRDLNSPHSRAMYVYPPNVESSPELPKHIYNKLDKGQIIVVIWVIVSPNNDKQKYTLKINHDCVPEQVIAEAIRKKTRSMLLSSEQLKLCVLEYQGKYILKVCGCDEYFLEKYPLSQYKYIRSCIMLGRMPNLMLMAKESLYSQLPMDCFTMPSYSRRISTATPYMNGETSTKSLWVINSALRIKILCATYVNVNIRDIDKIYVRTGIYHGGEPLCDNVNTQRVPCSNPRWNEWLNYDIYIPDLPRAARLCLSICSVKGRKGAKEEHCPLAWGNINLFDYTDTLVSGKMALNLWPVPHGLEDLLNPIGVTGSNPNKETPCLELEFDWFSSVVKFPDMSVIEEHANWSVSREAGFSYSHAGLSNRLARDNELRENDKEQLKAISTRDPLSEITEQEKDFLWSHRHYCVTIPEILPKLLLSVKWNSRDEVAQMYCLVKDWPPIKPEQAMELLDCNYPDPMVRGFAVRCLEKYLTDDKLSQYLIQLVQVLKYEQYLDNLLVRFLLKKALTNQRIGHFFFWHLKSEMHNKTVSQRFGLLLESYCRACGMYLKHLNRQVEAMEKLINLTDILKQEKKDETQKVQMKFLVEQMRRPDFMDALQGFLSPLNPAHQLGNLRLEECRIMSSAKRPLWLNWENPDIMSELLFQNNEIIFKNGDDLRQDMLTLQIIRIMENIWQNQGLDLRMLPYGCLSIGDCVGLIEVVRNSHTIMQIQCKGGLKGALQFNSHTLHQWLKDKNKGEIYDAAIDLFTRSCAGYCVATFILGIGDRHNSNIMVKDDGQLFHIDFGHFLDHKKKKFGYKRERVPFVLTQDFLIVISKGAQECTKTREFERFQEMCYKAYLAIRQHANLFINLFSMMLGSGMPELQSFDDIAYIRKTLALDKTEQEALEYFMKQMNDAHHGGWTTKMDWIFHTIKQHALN
SMILES,PI3KA_Act Ki,pKi
"C[C@H]1COCCN1c1nc(-c2cnc(N)nc2)c2c(n1)N([C@@]1(C)CCN(C(=O)[C@@]3(C)CCN3)C1)CC2.Cl [Example 494, [(3S)-3-{4-(2-aminopyrimidin-5-yl)-2-[(3S)-3-methylmorpholin-4-yl]-5,6-dihydro-7H-pyrrolo[2,3-d]pyrimidin-7-yl}-3-methylpyrrolidin-1-yl][(2R)-2-methylazetidin-2-yl]methanone hydrochloride]",46 pM,
"C[C@H]1COCCN1c1nc(-c2cnc(N)nc2)c2c(n1)N([C@@]1(C)CCN(C(=O)[C@]3(C)CCN3)C1)CC2.Cl [Example 495, [(3S)-3-{4-(2-aminopyrimidin-5-yl)-2-[(3S)-3-methylmorpholin-4-yl]-5,6-dihydro-7H-pyrrolo[2,3-d]pyrimidin-7-yl}-3-methylpyrrolidin-1-yl][(2S)-2-methylazetidin-2-yl]methanone hydrochloride]",31 pM,
"C[C@H]1COCCN1c1nc(-c2cnc(N)nc2)c2c(n1)N([C@@]1(C)CCN(C(=O)C3(F)CNC3)C1)CC2 [Example 496, [(3S)-3-{4-(2-aminopyrimidin-5-yl)-2-[(3S)-3-methylmorpholin-4-yl]-5,6-dihydro-7H-pyrrolo[2,3-d]pyrimidin-7-yl}-3-methylpyrrolidin-1-yl](3-fluoroazetidin-3-yl)methanone hydrochloride]",,> 10.74
"C[C@H]1COCCN1c1nc(-c2cnc(N)nc2)c2c(n1)N([C@@]1(C)CCN(C(=O)C3(F)CN(C(=O)OC(C)(C)C)C3)C1)CC2 [Example 497, tert-butyl 3-{[(3S)-3-{4-(2-aminopyrimidin-5-yl)-2-[(3S)-3-methylmorpholin-4-yl]-5,6-dihydro-7H-pyrrolo[2,3-d]pyrimidin-7-yl}-3-methylpyrrolidin-1-yl]carbonyl}-3-fluoroazetidine-1-carboxylate]",,10.25
"COC1CN(C(=O)N2CC[C@](C)(N3CCc4c(-c5cnc(N)nc5)nc(N5CCOC[C@@H]5C)nc43)C2)C1 [Example 498, [(3S)-3-{4-(2-aminopyrimidin-5-yl)-2-[(3S)-3-methylmorpholin-4-yl]-5,6-dihydro-7H-pyrrolo[2,3-d]pyrimidin-7-yl}-3-methylpyrrolidin-1-yl](3-methoxyazetidin-1-yl)methanone]",48 pM,
"C[C@H]1COCCN1c1nc(-c2cnc(N)nc2)c2c(n1)N([C@@]1(C)CCN(C(=O)[C@@H]3CCOC3)C1)CC2 [Example 499, [(3S)-3-{4-(2-aminopyrimidin-5-yl)-2-[(3S)-3-methylmorpholin-4-yl]-5,6-dihydro-7H-pyrrolo[2,3-d]pyrimidin-7-yl}-3-methylpyrrolidin-1-yl][(3R)-tetrahydrofuran-3-yl]methanone]",48 pM,
"C[C@H]1COCCN1c1nc(-c2cnc(N)nc2)c2c(n1)N([C@@]1(C)CCN(C(=O)[C@H]3CCOC3)C1)CC2 [Example 500, [(3S)-3-{4-(2-aminopyrimidin-5-yl)-2-[(3S)-3-methylmorpholin-4-yl]-5,6-dihydro-7H-pyrrolo[2,3-d]pyrimidin-7-yl}-3-methylpyrrolidin-1-yl][(3S)-tetrahydrofuran-3-yl]methanone]",64 pM,
"C[C@H]1COCCN1c1nc(-c2cnc(N)nc2)c2c(n1)N([C@@]1(C)CCN(C(=O)[C@H]3CCCO3)C1)CC2 [Example 501, [(3S)-3-{4-(2-aminopyrimidin-5-yl)-2-[(3S)-3-methylmorpholin-4-yl]-5,6-dihydro-7H-pyrrolo[2,3-d]pyrimidin-7-yl}-3-methylpyrrolidin-1-yl][(2R)-tetrahydrofuran-2-yl]methanone]",35 pM,
"CNC(=N)N1CC[C@](C)(N2CCc3c(-c4cnc(N)nc4)nc(N4CCOC[C@@H]4C)nc32)C1 [Example 504, (3S)-3-{4-(2-aminopyrimidin-5-yl)-2-[(3S)-3-methylmorpholin-4-yl]-5,6-dihydro-7H-pyrrolo[2,3-d]pyrimidin-7-yl}-N,3-dimethylpyrrolidine-1-carboximidamide]",109 pM,
"CNC(=O)N1CC[C@@](C)(N2CCc3c(-c4cnc(N)nc4)nc(N4CCOC[C@@H]4C)nc32)C1 [Example 505, (3R)-3-{4-(2-aminopyrimidin-5-yl)-2-[(3S)-3-methylmorpholin-4-yl]-5,6-dihydro-7H-pyrrolo[2,3-d]pyrimidin-7-yl}-N,3-dimethylpyrrolidine-1-carboxamide]",139 pM,
"CNC(=O)N1CC[C@](C)(N2CCc3c(-c4cnc(N)nc4)nc(N4CCOC[C@@H]4C)nc32)C1 [Example 506, (3S)-3-{4-(2-aminopyrimidin-5-yl)-2-[(3S)-3-methylmorpholin-4-yl]-5,6-dihydro-7H-pyrrolo[2,3-d]pyrimidin-7-yl}-N,3-dimethylpyrrolidine-1-carboxamide]",61 pM,
"CCNC(=O)N1CC[C@](C)(N2CCc3c(-c4cnc(N)nc4)nc(N4CCOCC4)nc32)C1 [Example 507, (3S)-3-[4-(2-aminopyrimidin-5-yl)-2-(morpholin-4-yl)-5,6-dihydro-7H-pyrrolo[2,3-d]pyrimidin-7-yl]-N-ethyl-3-methylpyrrolidine-1-carboxamide]",,10.09
"COC(=O)N1CC[C@](C)(N2CCc3c(-c4cnc(N)nc4)nc(N4CCOC[C@@H]4C)nc32)C1 [Example 508, methyl (3S)-3-{4-(2-aminopyrimidin-5-yl)-2-[(3S)-3-methylmorpholin-4-yl]-5,6-dihydro-7H-pyrrolo[2,3-d]pyrimidin-7-yl}-3-methylpyrrolidine-1-carboxylate]",<18 pM,
"COC(=O)N1CC[C@@](C)(N2CCc3c(-c4cnc(N)nc4)nc(N4CCOC[C@@H]4C)nc32)C1 [Example 509, methyl (3R)-3-{4-(2-aminopyrimidin-5-yl)-2-[(3S)-3-methylmorpholin-4-yl]-5,6-dihydro-7H-pyrrolo[2,3-d]pyrimidin-7-yl}-3-methylpyrrolidine-1-carboxylate]",135 pM,
"C[C@@H]1CN(C(=O)OC(C)(C)C)C[C@@]1(C)N1CCc2c(-c3cnc(N)nc3)nc(N3CCOC[C@@H]3C)nc21 [Example 510, tert-butyl (3S,4R)-3-{4-(2-aminopyrimidin-5-yl)-2-[(3S)-3-methylmorpholin-4-yl]-5,6-dihydro-7H-pyrrolo[2,3-d]pyrimidin-7-yl}-3,4-dimethylpyrrolidine-1-carboxylate]",<18 pM,
"C[C@H]1COCCN1c1nc(-c2cnc(N)nc2)c2c(n1)N([C@@]1(C)CN(C(=O)OC(C)(C)C)C[C@@H]1C)CC2 [Example 511, tert-butyl (3R,4S)-3-{4-(2-aminopyrimidin-5-yl)-2-[(3S)-3-methylmorpholin-4-yl]-5,6-dihydro-7H-pyrrolo[2,3-d]pyrimidin-7-yl}-3,4-dimethylpyrrolidine-1-carboxylate]",915 pM,
"C[C@H]1COCCN1c1nc(-c2cnc(N)nc2)c2c(n1)N([C@@]1(C)CCN(C(=O)OC(C)(C)C)C1)CC2 [Example 512, tert-butyl (3S)-3-{4-(2-aminopyrimidin-5-yl)-2-[(3S)-3-methylmorpholin-4-yl]-5,6-dihydro-7H-pyrrolo[2,3-d]pyrimidin-7-yl}-3-methylpyrrolidine-1-carboxylate]",<18 pM,
"C[C@H]1COCCN1c1nc(-c2cnc(N)nc2)c2c(n1)N([C@@]1(C)CCN(C)C1)CC2 [Example 513, 5-{7-[(3S)-1,3-dimethylpyrrolidin-3-yl]-2-[(3S)-3-methylmorpholin-4-yl]-6,7-dihydro-5H-pyrrolo[2,3-d]pyrimidin-4-yl}pyrimidin-2-amine]",418 pM,
"C[C@H]1COCCN1c1nc(-c2cnc(N)nc2)c2c(n1)N(C1(C)CCNCC1)CC2.Cl [Example 516, 5-{2-[(3S)-3-methylmorpholin-4-yl]-7-(4-methylpiperidin-4-yl)-6,7-dihydro-5H-pyrrolo[2,3-d]pyrimidin-4-yl}pyrimidin-2-amine hydrochloride]",346 pM,
"C[C@H]1COCCN1c1nc(-c2cnc(N)nc2)c2c(n1)N(C1(C)CCN(C(=O)OC(C)(C)C)CC1)CC2 [Example 519, tert-butyl 4-{4-(2-aminopyrimidin-5-yl)-2-[(3S)-3-methylmorpholin-4-yl]-5,6-dihydro-7H-pyrrolo[2,3-d]pyrimidin-7-yl}-4-methylpiperidine-1-carboxylate]",36 pM,
"C[C@H]1COCCN1c1nc(-c2cnc(N)nc2)c2c(n1)N(C1(C)CCCN(C(=O)OC(C)(C)C)C1)CC2 (stereo partly drawn) [Example 520, tert-butyl 3-{4-(2-aminopyrimidin-5-yl)-2-[(3S)-3-methylmorpholin-4-yl]-5,6-dihydro-7H-pyrrolo[2,3-d]pyrimidin-7-yl}-3-methylpiperidine-1-carboxylate]",663 pM,
"C[C@H]1COCCN1c1nc(-c2cnc(N)nc2)c2c(n1)N([C@H]1[C@@H]3CN(C(=O)OC(C)(C)C)C[C@@H]31)CC2 [Example 521, tert-butyl (1R,5S,6s)-6-{4-(2-aminopyrimidin-5-yl)-2-[(3S)-3-methylmorpholin-4-yl]-5,6-dihydro-7H-pyrrolo[2,3-d]pyrimidin-7-yl}-3-azabicyclo[3.1.0]hexane-3-carboxylate]",170 pM,
"C[C@H]1COCCN1c1nc(-c2cnc(N)nc2)c2c(n1)N([C@H]1[C@@H]3CNC[C@@H]31)CC2.Cl [Example 522, 5-{7-[(1R,5S,6s)-3-azabicyclo[3.1.0]hex-6-yl]-2-[(3S)-3-methylmorpholin-4-yl]-6,7-dihydro-5H-pyrrolo[2,3-d]pyrimidin-4-yl}pyrimidin-2-amine hydrochloride]",6845 pM,
"C[C@H]1COCCN1c1nc(-c2cnc(N)nc2)c2c(n1)N([C@H]1[C@H]3C[C@@H]1N(C(=O)OC(C)(C)C)C3)CC2 [Example 523, tert-butyl (1S,4S,5S)-5-{4-(2-aminopyrimidin-5-yl)-2-[(3S)-3-methylmorpholin-4-yl]-5,6-dihydro-7H-pyrrolo[2,3-d]pyrimidin-7-yl}-2-azabicyclo[2.1.1]hexane-2-carboxylate]",,8.28
